The values below come from article PMC9724289 (The European Respiratory Journal, 2022).

As a reminder, the IC50 is the concentration that inhibits the measured activity by half. A higher IC50 goes with weaker potency. What is called Kp is the ratio of the level in a tissue or fluid to that in plasma or blood.

Data set [1] relates to human pulmonary arterial smooth muscle cells (HPASMCs). Kind of data set: PDGF-BB-induced HPASMC proliferation assay. The class given is cell-based.
In another data set the target is PDGFRβ (Rattus norvegicus, UniProt Q05030). Nature of the data set: Imatinib in vivo pharmacodynamic profile. As to conditions: imatinib dose selected for the in vivo study, oral gavage.
PDGFRβ, sequence (Q05030 32-1097): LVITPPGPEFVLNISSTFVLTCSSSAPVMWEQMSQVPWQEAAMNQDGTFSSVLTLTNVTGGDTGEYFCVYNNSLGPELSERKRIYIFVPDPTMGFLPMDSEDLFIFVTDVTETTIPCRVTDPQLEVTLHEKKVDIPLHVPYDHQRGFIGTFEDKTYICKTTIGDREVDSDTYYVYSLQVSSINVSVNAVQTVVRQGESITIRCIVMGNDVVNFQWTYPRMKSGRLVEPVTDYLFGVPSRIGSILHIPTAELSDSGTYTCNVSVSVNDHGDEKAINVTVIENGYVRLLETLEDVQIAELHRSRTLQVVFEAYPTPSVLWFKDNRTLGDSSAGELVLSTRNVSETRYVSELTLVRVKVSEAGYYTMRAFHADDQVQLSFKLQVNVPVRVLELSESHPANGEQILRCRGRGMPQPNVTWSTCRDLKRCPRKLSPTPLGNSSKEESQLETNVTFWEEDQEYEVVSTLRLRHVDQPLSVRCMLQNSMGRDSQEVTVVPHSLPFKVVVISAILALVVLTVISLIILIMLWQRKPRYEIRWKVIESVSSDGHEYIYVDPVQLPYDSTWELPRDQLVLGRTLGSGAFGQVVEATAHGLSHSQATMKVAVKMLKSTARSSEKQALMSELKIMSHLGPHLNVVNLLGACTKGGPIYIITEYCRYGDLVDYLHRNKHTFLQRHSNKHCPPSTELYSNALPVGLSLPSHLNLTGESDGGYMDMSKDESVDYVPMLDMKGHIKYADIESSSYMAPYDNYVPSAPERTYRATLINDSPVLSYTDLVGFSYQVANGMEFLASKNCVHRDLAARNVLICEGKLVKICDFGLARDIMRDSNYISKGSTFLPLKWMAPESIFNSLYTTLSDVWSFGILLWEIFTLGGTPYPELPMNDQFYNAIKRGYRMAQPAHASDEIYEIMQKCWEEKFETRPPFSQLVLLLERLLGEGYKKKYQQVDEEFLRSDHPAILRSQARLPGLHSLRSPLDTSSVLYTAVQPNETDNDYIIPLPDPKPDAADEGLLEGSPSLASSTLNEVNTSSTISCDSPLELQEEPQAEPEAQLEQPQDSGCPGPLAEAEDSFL
The subject of data set [2] is rat SU5416/Hypoxia (SU5416/H) model of PAH. Nature of the data set: SU5416/H model. It counts as in vivo. As to conditions: for circulating IL-10 / circulating plasma TNF-α / lung mRNA and protein levels of MCP-1: day 49, vs vehicle; for lung BMPR2: end of treatment, vs vehicle.
The test system of data set [3] is rat monocrotaline (MCT) model. As to conditions: cited from earlier work.
The test system of data set [4] is MCP-1 secretion in CSF1R+ human macrophages. Nature of the data set: MCP-1/CCL2 secretion in primary human macrophages. As to conditions: 24-hour incubation. The class given is cell-based.
The target in data set [5] is c-KIT (Rattus norvegicus, UniProt F7EWK5). Nature of the data set: Lung c-KIT phosphorylation after PDGF-BB and SCF challenge in healthy rats. The class given is in vivo. As to conditions: inhaled; co-administered intratracheal PDGF-BB and SCF.
c-KIT (Rattus norvegicus, UniProt F7EWK5), sequence (F7EWK5 26-978): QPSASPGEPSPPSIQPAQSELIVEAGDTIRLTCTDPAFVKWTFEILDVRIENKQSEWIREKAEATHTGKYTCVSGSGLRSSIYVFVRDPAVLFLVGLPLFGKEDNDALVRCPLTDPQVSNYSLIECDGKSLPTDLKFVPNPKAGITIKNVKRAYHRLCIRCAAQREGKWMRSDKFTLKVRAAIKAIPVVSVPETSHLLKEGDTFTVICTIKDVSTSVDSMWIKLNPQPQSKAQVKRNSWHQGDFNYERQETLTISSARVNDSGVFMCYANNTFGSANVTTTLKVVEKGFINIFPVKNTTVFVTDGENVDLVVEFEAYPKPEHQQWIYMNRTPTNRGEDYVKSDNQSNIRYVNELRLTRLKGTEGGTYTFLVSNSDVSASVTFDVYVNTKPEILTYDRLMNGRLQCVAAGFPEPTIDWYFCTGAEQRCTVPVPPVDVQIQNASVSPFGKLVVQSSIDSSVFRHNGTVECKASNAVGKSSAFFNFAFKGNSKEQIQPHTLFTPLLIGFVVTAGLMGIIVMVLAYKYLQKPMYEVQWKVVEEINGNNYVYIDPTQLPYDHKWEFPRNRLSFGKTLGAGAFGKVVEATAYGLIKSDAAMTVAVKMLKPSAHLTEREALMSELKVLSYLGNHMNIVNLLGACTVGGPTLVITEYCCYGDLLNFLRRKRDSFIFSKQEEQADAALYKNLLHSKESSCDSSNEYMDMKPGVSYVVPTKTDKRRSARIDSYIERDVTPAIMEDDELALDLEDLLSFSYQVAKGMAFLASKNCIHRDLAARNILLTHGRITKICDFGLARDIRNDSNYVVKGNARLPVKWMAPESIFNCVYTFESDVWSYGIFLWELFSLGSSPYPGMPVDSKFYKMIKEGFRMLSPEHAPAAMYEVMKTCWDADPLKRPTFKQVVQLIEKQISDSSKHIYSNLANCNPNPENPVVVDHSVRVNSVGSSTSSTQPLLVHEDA
In another data set the test system is BMPR2. Kind of data set: Lung BMPR2 protein expression in healthy rats. It counts as in vivo, rat. As to conditions: inhaled, dose-dependent, over time (8, 16, 24 h post-dosing).
For data set [6], the system named is rat SU5416/Hypoxia (SU5416/H) model of PAH. Nature of the data set: SU5416/H model. As to conditions: for RVSP end of study: 2 weeks. It counts as in vivo.
Data set [7] has as its system rat monocrotaline pneumonectomy (MCTPN) model of PAH. Nature of the data set: MCTPN model. It counts as in vivo.
In data set [8] the target is c-KIT (Homo sapiens, UniProt P10721). Nature of the data set: cell-based.
c-KIT (Homo sapiens, UniProt P10721), sequence (P10721 26-976): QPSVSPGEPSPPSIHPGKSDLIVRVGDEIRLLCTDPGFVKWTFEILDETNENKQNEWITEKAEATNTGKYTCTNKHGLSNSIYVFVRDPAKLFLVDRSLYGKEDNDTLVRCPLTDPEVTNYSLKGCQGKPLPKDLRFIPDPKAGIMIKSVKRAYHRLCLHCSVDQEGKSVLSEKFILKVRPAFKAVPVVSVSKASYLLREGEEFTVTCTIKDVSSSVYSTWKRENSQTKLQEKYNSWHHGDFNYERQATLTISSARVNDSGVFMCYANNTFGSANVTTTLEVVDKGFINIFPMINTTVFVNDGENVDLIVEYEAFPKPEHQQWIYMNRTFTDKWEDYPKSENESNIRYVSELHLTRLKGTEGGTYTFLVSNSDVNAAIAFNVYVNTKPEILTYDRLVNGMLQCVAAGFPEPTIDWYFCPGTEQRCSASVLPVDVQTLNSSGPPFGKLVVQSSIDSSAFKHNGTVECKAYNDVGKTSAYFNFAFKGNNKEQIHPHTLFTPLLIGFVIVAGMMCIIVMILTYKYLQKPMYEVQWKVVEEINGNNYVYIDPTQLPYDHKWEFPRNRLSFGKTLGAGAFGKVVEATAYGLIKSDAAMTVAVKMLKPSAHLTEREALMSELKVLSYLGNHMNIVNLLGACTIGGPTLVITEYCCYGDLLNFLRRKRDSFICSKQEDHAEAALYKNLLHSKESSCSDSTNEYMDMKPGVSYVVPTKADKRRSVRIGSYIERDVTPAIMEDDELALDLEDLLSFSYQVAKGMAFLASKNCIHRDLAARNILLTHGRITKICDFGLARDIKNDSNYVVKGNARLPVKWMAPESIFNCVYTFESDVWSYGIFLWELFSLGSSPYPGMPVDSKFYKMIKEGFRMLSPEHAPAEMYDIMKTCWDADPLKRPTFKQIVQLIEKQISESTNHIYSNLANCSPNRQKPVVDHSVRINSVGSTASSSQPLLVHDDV
The nature of data set [9]: Inhaled seralutinib pharmacokinetics in healthy rats. As to conditions: male, Sprague Dawley, rat, lung homogenate and plasma.
The next data set deals with CSF1R (Homo sapiens, UniProt P07333). Kind of data set: M-CSF-induced pCSF1R in primary human macrophages.
CSF1R, sequence (P07333 20-972): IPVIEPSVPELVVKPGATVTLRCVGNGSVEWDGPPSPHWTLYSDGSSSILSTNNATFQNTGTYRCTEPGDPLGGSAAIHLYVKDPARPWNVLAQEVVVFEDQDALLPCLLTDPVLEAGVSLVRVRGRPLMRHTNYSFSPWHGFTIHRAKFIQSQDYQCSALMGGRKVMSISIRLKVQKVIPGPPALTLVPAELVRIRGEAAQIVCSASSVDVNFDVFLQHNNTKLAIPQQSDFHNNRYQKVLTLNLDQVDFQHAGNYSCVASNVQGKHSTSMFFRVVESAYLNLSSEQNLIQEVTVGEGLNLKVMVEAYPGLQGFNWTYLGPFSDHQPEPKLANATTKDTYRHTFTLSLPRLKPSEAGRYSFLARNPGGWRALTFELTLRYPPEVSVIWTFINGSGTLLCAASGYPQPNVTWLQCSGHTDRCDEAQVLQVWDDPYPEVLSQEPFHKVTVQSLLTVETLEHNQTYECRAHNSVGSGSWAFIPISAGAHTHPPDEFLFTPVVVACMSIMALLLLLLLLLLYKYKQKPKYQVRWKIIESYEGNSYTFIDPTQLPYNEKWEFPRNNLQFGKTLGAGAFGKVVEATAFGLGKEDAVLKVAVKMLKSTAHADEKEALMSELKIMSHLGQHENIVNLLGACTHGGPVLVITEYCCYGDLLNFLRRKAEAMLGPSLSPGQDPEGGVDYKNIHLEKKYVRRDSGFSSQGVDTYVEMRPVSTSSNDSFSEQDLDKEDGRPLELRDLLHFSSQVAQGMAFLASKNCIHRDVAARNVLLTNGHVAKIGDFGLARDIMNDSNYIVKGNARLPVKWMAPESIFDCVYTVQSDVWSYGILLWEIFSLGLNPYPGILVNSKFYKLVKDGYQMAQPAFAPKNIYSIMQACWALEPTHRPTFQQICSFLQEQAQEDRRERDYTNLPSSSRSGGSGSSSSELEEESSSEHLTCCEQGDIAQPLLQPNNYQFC
[10] abbreviates: 4.6 mg·kg−1 twice daily, vs vehicle.
Setting [11] is: 2.5 mg·kg−1 twice daily inhaled, 11 days.
The mark [12] stands for this setting: 2.5 mg·kg−1 twice daily, vs vehicle.

Consider `Cc1ccc(NC(=O)c2ccc(CN3CCN(C)CC3)cc2)cc1Nc1nccc(-c2cccnc2)n1` [Imatinib, reference compound], for which the “potency less than seralutinib” value in data set [1] (human PASMC and HLF proliferation assays) was 13–20 fold. For the same molecule, on PDGFRβ, the “PDGFRβ phosphorylation in healthy rats” value is recorded as “potent inhibition”. In addition, in data set [2], the “circulating IL-10” value is recorded as “did not significantly alter”; the “circulating plasma TNF-α” value is recorded as “did not significantly alter”; the “lung mRNA and protein levels of MCP-1” value is “did not modulate”; the “lung BMPR2” value is “no significant effect”. The “effect on NT-proBNP” value in data set [2] (imatinib 15.0 mg·kg−1 once daily oral, day 49) is given as “no significant effect”. In addition, the “pulmonary hypertension in rat MCT model” value in [3] is “reversed pulmonary hypertension”.
Turning to `COc1ccc(-c2cncc(N[C@@H](C)c3cccc(NC(=O)c4cncc(C)c4)c3)n2)cc1OC` [Seralutinib, N-[3-[(1S)-1-[[6-(3,4-dimethoxyphenyl)pyrazin-2-yl]amino]ethyl]phenyl]-5-methylpyridine-3-carboxamide], the “greater potency at inhibiting proliferation compared to imatinib” value in [1] (human PASMCs and HLFs) is listed as 13- to 20 fold. Also, the MCP-1 secretion result in [4] is “reduced MCP-1 secretion in a dose-dependent manner”. In addition, on c-KIT [5], the “inhibition of c-KIT Y719 phosphorylation in lung” value was found to be 43%. For the same molecule, the “increase in lung BMPR2 protein expression” value in the data set on BMPR2 is recorded as 2-to-2.5 fold. In data set [6] (2.5 mg·kg−1 twice daily inhaled), the “RVSP end of study” value is 49.6±3.1 mmHg. Also, the “reduction of PASP relative to vehicle” value in data set [6] (2.5 mg·kg−1 twice daily inhaled, end of 2-week treatment, telemetry) is listed as 43%. The “RVSP end of study” value in data set [6] (4.6 mg·kg−1 twice daily inhaled) was 34.7±2.2 mmHg. For the same molecule, in [6] (setting [10]), the “lung phospho-PDGFRβ IHC” value is on record as “reduced intensity”, the “number of grade 2 lesions (small pulmonary artery occlusion)” value is given as “significant decrease” and the “small pulmonary artery lumen-to-media area” value was “increased”. In [7] (setting [11]), the “reduction in RVSP compared to vehicle” value is reported as 50% and the “reduction of right ventricular hypertrophy compared to vehicle” value is 49%. In addition, the “PASP lower compared to vehicle” value in data set [7] (2.5 mg·kg−1 twice daily inhaled, day 9) amounted to 34%. The “PASP lower compared to vehicle” value in [7] (2.5 mg·kg−1 twice daily inhaled, day 10) was determined as 37%. Further, the “PASP lower compared to vehicle” value in data set [7] (2.5 mg·kg−1 twice daily inhaled, day 11) came to 41%. In addition, the lumen-to-media area result in data set [7] (2.5 mg·kg−1 twice daily, vs controls) is given as “increased”. Besides, in data set [7] (setting [12]), the “grade 1 and 2 lesions” value was “fewer”; the perivascular fibrosis result was “qualitative decrease”. Further, in data set [7] (vs vehicle), the airway resistance result was “similar”, the minute ventilation entry is given as “similar”, the respiratory rate entry is on record as “decreased” and the tidal volume result was “significantly improved”. Further, the “decrease of NT-proBNP versus vehicle control” value in data set [2] (12.8 mg·kg−1 twice daily inhaled, day 49) is recorded as 55%. The “small pulmonary artery muscularisation” value in [2] (compared to both the vehicle and imatinib-treated groups) is recorded as “decrease”. Further, in data set [2] (day 49), the “SMAD1/5 phosphorylation in lung” value is “increase” and the “circulating PDGF-BB” value is “trend towards decreased”. For the same molecule, in data set [2], the “circulating IL-10” value is “increased”; the “circulating plasma TNF-α” value is reported as “decreased”; the “lung mRNA and protein levels of MCP-1” value is given as “decreased”; the “lung BMPR2” value was “significantly increased”. In addition, the “effect on stroke volume index and cardiac index compared to imatinib” value in data set [2] (echocardiography, day 49) is “significantly greater effect”. The molecule further returned an IC50 against c-KIT [8] of 0.0078 µM. The same molecule registered a Kp in data set [9] of 30. This molecule also registered a half-inhibitory concentration (IC50) on CSF1R of 0.0144 µM. For the same molecule, on CSF1R (M-CSF-induced phosphorylation of CSF1R in human primary differentiated macrophages), the “more potent than imatinib, pCSF1R” value came out at 34 fold.
